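Method: 48-hour compound exposure of cells in 96-well plates, five concentrations, linear interpolation of endpoints. The concentration for 50% growth inhibition is given as GI50.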 Active and inactive are the calls of the source. Cut-off read from the data, not from the text of the source: active = GI50 up to about 1.1 µM and inactive = higher.
What was measured:
Experiment in all cases: NCI-60 cell line screen, 48 h
[1] = tested on: A498
[2] = tested on: A549
[3] = tested on: ACHN
[4] = tested on: CAKI-1
[5] = tested on: K562
[6] = tested on: LXFL 529
[7] = tested on: MOLT-4
[8] = tested on: NCI-H522
[9] = tested on: OVCAR-3
[10] = tested on: OVCAR-4
[11] = tested on: OVCAR-8
[12] = tested on: SF-295
[13] = tested on: SN12C
[14] = tested on: SNB-19
[15] = tested on: SW-620
[16] = tested on: U-251
[17] = tested on: DU-145
[18] = tested on: MDA-MB-231
[19] = tested on: MDA-N
[20] = tested on: PC-3

Compound	GI50 [1]	GI50 [2]	GI50 [3]	GI50 [4]	GI50 [5]	GI50 [6]	GI50 [7]	GI50 [8]	GI50 [9]	GI50 [10]	GI50 [11]	GI50 [12]	GI50 [13]	GI50 [14]	GI50 [15]	GI50 [16]	GI50 [17]	GI50 [18]	GI50 [19]	GI50 [20]
O=C1C[C@H](c2ccc(O)c(O)c2)Oc2cc(O)cc(O)c21	> 100 µM (inactive)	> 100 µM (inactive)	65.8 µM (inactive)	> 100 µM (inactive)	> 100 µM (inactive)	> 100 µM (inactive)	74.5 µM (inactive)	11.6 µM (inactive)	> 100 µM (inactive)	> 100 µM (inactive)	> 100 µM (inactive)	> 100 µM (inactive)	> 100 µM (inactive)	> 100 µM (inactive)	> 100 µM (inactive)	82.4 µM (inactive)	–	–	–	–
Cc1ccc(NC(=O)C(=O)C(C#N)c2ccccc2C)cc1C (stereo not given)	> 100 µM (inactive)	> 91.6 µM (inactive)	> 100 µM (inactive)	> 100 µM (inactive)	> 44.9 µM (inactive)	> 100 µM (inactive)	> 100 µM (inactive)	> 92.5 µM (inactive)	> 100 µM (inactive)	> 100 µM (inactive)	> 100 µM (inactive)	> 100 µM (inactive)	> 100 µM (inactive)	> 100 µM (inactive)	> 41.8 µM (inactive)	> 77.3 µM (inactive)	–	–	–	–
CC(=O)OC1COC(N2C(=O)C(=O)c3ccccc32)C(OC(C)=O)C1OC(C)=O (stereo not given)	> 100 µM (inactive)	> 100 µM (inactive)	> 100 µM (inactive)	> 100 µM (inactive)	> 100 µM (inactive)	> 100 µM (inactive)	> 100 µM (inactive)	> 100 µM (inactive)	> 100 µM (inactive)	> 100 µM (inactive)	> 100 µM (inactive)	> 100 µM (inactive)	> 100 µM (inactive)	> 100 µM (inactive)	> 100 µM (inactive)	> 100 µM (inactive)	–	–	–	–
COC1=CC(C2c3cc4c(cc3[C@@H](Nc3ccc([N+](=O)[O-])cc3)C3COC(=O)[C@H]23)OCO4)=CC(=O)C1=O (stereo not given in full)	1.84 µM (inactive)	0.923 µM (active)	0.912 µM (active)	2.64 µM (inactive)	6.22 µM (inactive)	16.4 µM (inactive)	0.217 µM (active)	2.58 µM (inactive)	14.2 µM (inactive)	59.3 µM (inactive)	4.25 µM (inactive)	2.09 µM (inactive)	2 µM (inactive)	3.07 µM (inactive)	5.31 µM (inactive)	1.35 µM (inactive)	–	–	–	–
COc1ccc(/C=C2/CSC/C(=C/c3ccc(OC)c(OC)c3)C2=O)cc1OC	4.93 µM (inactive)	2.27 µM (inactive)	2.31 µM (inactive)	3.49 µM (inactive)	1.42 µM (inactive)	1.93 µM (inactive)	1.74 µM (inactive)	2.26 µM (inactive)	2 µM (inactive)	1.71 µM (inactive)	0.664 µM (active)	2.44 µM (inactive)	1.77 µM (inactive)	3.5 µM (inactive)	1.19 µM (inactive)	1.01 µM (active)	2.88 µM (inactive)	3.28 µM (inactive)	2.58 µM (inactive)	3.03 µM (inactive)
COC(=O)C[S+]([O-])c1ccccc1 (stereo not given)	49.8 µM (inactive)	26.8 µM (inactive)	33.7 µM (inactive)	58.1 µM (inactive)	35.9 µM (inactive)	31.8 µM (inactive)	10.8 µM (inactive)	13.8 µM (inactive)	31.3 µM (inactive)	41.2 µM (inactive)	27.5 µM (inactive)	36.6 µM (inactive)	17.6 µM (inactive)	37.8 µM (inactive)	38.3 µM (inactive)	24.4 µM (inactive)	–	–	–	–
O=Nc1ccc(O)c2ncccc12	18.5 µM (inactive)	2.5 µM (inactive)	3.13 µM (inactive)	16.3 µM (inactive)	0.711 µM (active)	2.38 µM (inactive)	–	1.43 µM (inactive)	3.33 µM (inactive)	11.6 µM (inactive)	3.47 µM (inactive)	8.05 µM (inactive)	8.18 µM (inactive)	16 µM (inactive)	4.79 µM (inactive)	3.31 µM (inactive)	5.7 µM (inactive)	6.43 µM (inactive)	1.75 µM (inactive)	14.7 µM (inactive)
O=C1c2ccccc2C(=O)N1C/C=N/NS(=O)(=O)c1ccc2ccccc2c1	> 100 µM (inactive)	> 100 µM (inactive)	> 100 µM (inactive)	> 100 µM (inactive)	> 100 µM (inactive)	> 100 µM (inactive)	> 100 µM (inactive)	> 100 µM (inactive)	> 100 µM (inactive)	> 100 µM (inactive)	> 100 µM (inactive)	> 100 µM (inactive)	> 100 µM (inactive)	> 100 µM (inactive)	> 100 µM (inactive)	> 100 µM (inactive)	–	–	–	–

From ChEMBL document CHEMBL1201862, “PubChem BioAssay data set” (2004)
